Results reported in patent US8633005B2, “Isocyclomaltooligosaccharide(s), isocyclomaltooligosaccharide-forming enzyme, their preparation and uses” (Hayashibara Co., Ltd., priority 2004, dated 2014).

Test: pH stability of ICM (ICG5 in buffers pH 2 to 10 heated at 100° C. for 24 hours)
Assay type: physicochemical
Details: for Degree of coloring / Purity: 4% (w/v), 100° C. for 24 hours
Description: ICG5, prepared from soluble starch by the method in Experiment 11 and purified to give a purity of 100% by the method in Experiment 1, was used as material. An aqueous ICG5 solution with a concentration of 5% (w/v) was prepared by dissolving ICG5 in deionized water. Then, 8 ml each of the resulting solution was pored into a glass tube, sealed closely, and then heated at 120° C. for 30 to 90 min. After cooling the solution, the degree of coloring of the solution was measured. Further, the purity of ICG5 in the solution was measured by HPLC. The degree of coloring was defined as an absorbance at 480 nm using a 1 cm-cell.
ICG5, used in Experiment 15, was dissolved in various buffers to make into nine kinds of aqueous solutions containing 4% (w/v) of ICG5, adjusted to pH 2 to 10, as shown in Table 14. Eight milliliters of each solution was put in a glass tube, sealed and then heated at 100° C. for 24 hours. After cooling the solution, the degree of coloring and the purity of ICG5 of each solution were measured in the same manner in Experiment 15.

## OCC1OC2OC3C(CO)OC(OC4C(CO)OC(OC5C(CO)OC(OCC6OC(OC1C(O)C2O)C(O)C(O)C6O)C(O)C5O)C(O)C4O)C(O)C3O [ICG5, cyclo{→6)-α-D-glucopyranosyl-(1→4)-α-D-glucopyranosyl-(1→4)-α-D-glucopyranosyl-(1→4)-.α-D-glucopyranosyl-(1→4)α-D-glucopyranosyl-(1→}]
pH 2, 100° C. for 24 hours
  Hydrolysis: completely hydrolyzed
pH 2.0, Acetate buffer
  Degree of coloring: 0.00 A480 nm
  Purity: 0%
pH 3, 100° C. for 24 hours
  Hydrolysis: ≥ 50
pH 3.0, Acetate buffer
  Degree of coloring: 0.00 A480 nm
  Purity: 34.9%
pH 4, 100° C. for 24 hours
  Hydrolysis: slightly hydrolyzed
pH 4.0, Acetate buffer
  Degree of coloring: 0.00 A480 nm
  Purity: 89.9%
pH 5.0, Acetate buffer
  Degree of coloring: 0.00 A480 nm
  Purity: 99.4%
pH 6.0, Acetate buffer
  Degree of coloring: 0.00 A480 nm
  Purity: 100%
pH 7.0, Borate buffer
  Degree of coloring: 0.00 A480 nm
  Purity: 100%
pH 8.0, Ammonium buffer
  Degree of coloring: 0.00 A480 nm
  Purity: 100%
pH 9.0, Ammonium buffer
  Degree of coloring: 0.01 A480 nm
  Purity: 100%
pH 10.0, Ammonium buffer
  Degree of coloring: 0.01 A480 nm
  Purity: 99.6%
pH range of 5 to 10, 100° C. for 24 hours
  Hydrolysis: substantially not hydrolyzed
